Reference: US6172085A (priority 1996, dated 2001)
Counter-ions that a name gives are not always drawn.

Test system: sodium channel
Assay type: binding, Wistar rats
Details: rat cerebral cortex membrane, 5 nM [^3 H]batracotoxinin A20-α-benzoate, 1 μM tetrodotoxin, 100 μg/mL scorpion toxin, 37° C., 1 hour

Compound	IC50
Cc1c(C)c2c(c(C)c1N)CC(C)(CN1CCC(OC(c3ccc(F)cc3)c3ccc(F)cc3)CC1)O2 (centres unmarked) [Example 28, 2-[[4-[Bis(4-fluorophenyl)methoxy]-1-piperidinyl]methyl]-2,3-dihydro-2,4,6,7-tetramethyl-5-benzofuranamine oxalate]	220 nM
Cc1c(C)c2c(c(C)c1N)CC(C)(CN1CCN(Cc3ccccc3)CC1)O2 (centres unmarked) [Example 6, 2-[(4-Benzyl-1-piperazinyl)methyl]-2,3-dihydro-2,4,6,7-tetramethyl-5-benzofuranamine trihydrochloride]	790 nM
COc1ccccc1CN1CCN(CC2(C)Cc3c(C)c(N)c(C)c(C)c3O2)CC1 (centres unmarked) [Example 31, 2,3-Dihydro-2-[[4-(2-methoxybenzyl)-1-piperazinyl]methyl]-2,4,6,7-tetramethyl-5-benzofuranamine trihydrochloride]	490 nM
Cc1c(C)c2c(c(C)c1N)CC(C)(CN1CCC(CCc3ccccc3)CC1)O2 (centres unmarked) [Example 1, 2,3-Dihydro-2,4,6,7-tetramethyl-2-[[4-(2-phenylethyl)-1-piperidinyl]methyl]-5-benzofuranamine]	220 nM
Cc1c(C)c2c(c(C)c1N)CC(C)(CN1CCC(CCOC(c3ccccc3)c3ccccc3)CC1)O2 (centres unmarked) [Example 25, 2-[[4-[2-(Diphenylmethoxy)ethyl]-1-piperidinyl]methyl]-2,3-dihydro-2,4,6,7-tetramethyl-5-benzofuranamine oxalate]	340 nM
Cc1c(C)c2c(c(C)c1N)CC(C)(CN1CCC(OC(c3ccccc3)c3ccccc3)CC1)O2 (centres unmarked) [Example 17, 2-[[4-(Diphenylmethoxy)-1-piperidinyl]methyl]-2,3-dihydro-2,4,6,7-tetramethyl-5-benzofuranamine oxalate]	320 nM
Cc1c(C)c2c(c(C)c1N)CC(C)(CN1CCC(CCNCCC(c3ccccc3)c3ccccc3)CC1)O2 (centres unmarked) [Example 42, 1-[(5-Amino-2,3-dihydro-2,4,6,7-tetramethylbenzofuran-2-yl)methyl]-N-(3,3-diphenylpropyl)-4-piperidineethylamine trihydrochloride]	160 nM
Cc1c(C)c2c(c(C)c1N)CC(C)(CN1CCC(CCCOC(c3ccccc3)c3ccccc3)CC1)O2 (centres unmarked) [Example 26, 2-[[4-[3-(Diphenylmethoxy)propyl]-1-piperidinyl]methyl]-2,3-dihydro-2,4,6,7-tetramethyl-5-benzofuranamine oxalate]	220 nM
Cc1c(C)c2c(c(C)c1N)CC(C)(CN1CCc3ccccc3CC1)O2 (centres unmarked) [Reference Example 10, 2,3-Dihydro-2,4,6,7-tetramethyl-2-[(2,3,4,5-tetrahydro-1H-3-benzazepin-3-yl)methyl]-5-benzofuranamine dihydrochloride]	470 nM
Cc1c(C)c2c(c(C)c1N)CC(C)(CN1CCC(CCNC(c3ccccc3)c3ccccc3)CC1)O2 (centres unmarked) [Example 41, 1[(5-Amino-2,3-dihydro-2,4,6,7-tetramethylbenzofuran-2-yl)methyl]-N-(diphenylmethyl)-4-piperidineethylamine trihydrochloride]	140 nM
CCNc1c(C)c(C)c2c(c1C)CC(C)(CN1CCC(c3ccccc3)CC1)O2 (centres unmarked) [Reference Example 8, N-ethyl-2,3-dihydro-2,4,6,7-tetramethyl-2-[(4-phenyl-1-piperidinyl)methyl]-5-benzofuranamine]	640 nM
Cc1c(C)c2c(c(C)c1N)CC(C)(CN1CCC(CCCc3ccccc3)CC1)O2 (centres unmarked) [Example 2, 2,3-Dihydro-2,4,6,7-tetramethyl-2-[[4-(3-phenylpropyl)-1-piperidinyl]methyl]-5-benzofuranamine]	280 nM
Cc1c(C)c2c(c(C)c1N)CC(C)(CN1CCC(COC(c3ccccc3)c3ccccc3)CC1)O2 (centres unmarked) [Example 24, 2-[[4-[(Diphenylmethoxy)methyl]-1-piperidinyl]methyl]-2,3-dihydro-2,4,6,7-tetramethyl-5-benzofuranamine oxalate]	410 nM
Cc1c(C)c2c(c(C)c1N)CC(C)(CN1CCC(Cc3ccccc3)CC1)O2 (centres unmarked) [Example 5, 2-[(4-Benzyl-1-piperidinyl)methyl]-2,3-dihydro-2,4,6,7-tetramethyl-5-benzofuranamine]	520 nM
COc1ccc(CN2CCN(CC3(C)Cc4c(C)c(N)c(C)c(C)c4O3)CC2)cc1 (centres unmarked) [Example 29, 2,3-Dihydro-2-[[4-(4-methoxybenzyl)-1-piperazinyl]methyl]-2,4,6,7-tetramethyl-5-benzofuranamine trihydrochloride]	210 nM
Cc1ccc(CN2CCN(CC3(C)Cc4c(C)c(N)c(C)c(C)c4O3)CC2)cc1 (centres unmarked) [Example 34, 2,3-Dihydro-2,4,6,7-tetramethyl-2-[[4-(4-methylbenzyl)-1-piperazinyl]methyl]-5-benzofuranamine trihydrochloride]	420 nM
Cc1c(C)c2c(c(C)c1N)CC(C)(CN1CCN(Cc3ccc(Cl)cc3)CC1)O2 (centres unmarked) [Example 33, 2-[[4-(4-Chlorobenzyl)-1-piperazinyl]methyl]-2,3-dihydro-2,4,6,7-tetramethyl-5-benzofuranamine trihydrochloride]	310 nM
COc1ccc(CN2CCN(CC3(C)Cc4c(C)c(N)c(C)c(C)c4O3)CC2)cc1OC (centres unmarked) [Example 32, 2-[[4-(3,4-Dimethoxybenzyl)-1-piperazinyl]methyl]-2,3-dihydro-2,4,6,7-tetramethyl-5-benzofuranamine trihydrochloride]	250 nM
Cc1c(C)c2c(c(C)c1N)CC(C)(CN1CCC(CCCCc3ccccc3)CC1)O2 (centres unmarked) [Example 3, 2,3-Dihydro-2,4,6,7-tetramethyl-2-[[4-(4-phenylbutyl)-1-piperidinyl]methyl]-5-benzofuranamine]	260 nM
Cc1c(C)c2c(c(C)c1N)CC(C)(CN1CCN(Cc3ccc4c(c3)OCO4)CC1)O2 (centres unmarked) [Example 4, 2,3-Dihydro-2,4,6,7-tetramethyl-2-[[4-[(3,4-methylenedioxyphenyl)methyl]-1-piperazinyl]methyl]-5-benzofuranamine trihydrochloride]	280 nM
COc1cccc(CN2CCN(CC3(C)Cc4c(C)c(N)c(C)c(C)c4O3)CC2)c1 (centres unmarked) [Example 30, 2,3-Dihydro-2-[[4-(3-methoxybenzyl)-1-piperazinyl]methyl]-2,4,6,7-tetramethyl-5-benzofuranamine trihydrochloride]	390 nM
Cc1c(C)c2c(c(C)c1N)CC(C)(CN1CCN(CCc3ccccc3)CC1)O2 (centres unmarked) [Example 27, 2,3-Dihydro-2,4,6,7-tetramethyl-2-[[4-(2-phenylethyl)-1-piperazinyl]methyl]-5-benzofuranamine]	200 nM
Cc1c(C)c2c(c(C)c1N)CC(C)(CN1CCC(NC(c3ccccc3)c3ccccc3)CC1)O2 (centres unmarked) [Example 40, 1-[(5-Amino-2,3-dihydro-2,4,6,7-tetramethylbenzofuran-2-yl)methyl]-N-(diphenylmethyl)-4-piperidinamine trihydrochloride]	160 nM
